The experiment concerns HIV. The experiment can be described thus: MT4 assay, antiviral HIV activity. The experiment is classed as cell-based. As to conditions: Human immunodeficiency virus 1, 96 h, read-out: HIV MT4 Assay IC50. Here is the method: Antiviral HIV activity and cytotoxicity values for compounds of the invention from Table 1 were measured in parallel in the HTLV-1 transformed cell line MT-4 based on the method previously described (Hazen et al., 2007, In vitro antiviral activity of the novel, tyrosyl-based human immunodeficiency virus (HIV) type 1 protease inhibitor brecanavir (GW640385) in combination with other antiretrovirals and against a panel of protease inhibitor-resistant HIV (Hazen et al., “In vitro antiviral activity of the novel, tyrosyl-based human immunodeficiency virus (HIV) type 1 protease inhibitor brecanavir (GW640385) in combination with other antiretrovirals and against a panel of protease inhibitor-resistant HIV”, Antimicrob. Agents Chemother. 2007, 51: 3147-3154; and Pauwels et al., “Sensitive and rapid assay on MT-4 cells for the detection of antiviral compounds against the AIDS virus”, J. of Virological Methods 1987, 16: 171-185).
Luciferase activity was measured 96 hours later by adding a cell titer glo (Promega, Madison, Wis.). Percent inhibition of cell protection data was plotted relative to no compound control. Under the same condition, cytotoxicity of the compounds was determined using cell titer Glo™ (Promega, Madison, Wis.). IC50s were determined from a 10 point dose response curve using 3-4-fold serial dilution for each compound, which spans a concentration range >1000 fold.
These values are plotted against the molar compound concentrations using the standard four parameter logistic equation: y=((Vmax*x^n)/(K^n+x^n))+Y2
Y2=minimum y n=slope factor
Vmax=maximum y x=compound concentration [M]

In the case of `Cc1ccc(-c2c(C)c(C(=O)N[C@H]3CC[C@H](C)CC3)cc(=O)n2C(CC(C)(C)C)C(=O)O)cc1` (stereo partly drawn) [Example 1, 4,4-Dimethyl-2-(5-methyl-4-(((1r,4r)-4-methylcyclohexyl)carbamoyl)-2-oxo-6-(p-tolyl)pyridin-1(2H)-yl)pentanoic acid], the IC50 came to 0.35 µM. As for `Cc1ccc(-c2c(C)c(-c3ccc(C)c(C)c3)cc(=O)n2C(CC(C)(C)C)C(=O)O)cc1` (stereo not drawn) [Example 2, 2-(4-(3,4-Dimethylphenyl)-5-methyl-2-oxo-6-(p-tolyl)pyridin-1(2H)-yl)-4,4-dimethylpentanoic acid], the figure is 1.09 µM; as for `Cc1ccc(-c2c(C)c(-c3ccc(C)c(C)c3)c(NS(C)(=O)=O)c(=O)n2C(CC(C)(C)C)C(=O)O)cc1` (stereo not drawn) [Example 3, 2-(4-(3,4-dimethylphenyl)-5-methyl-3-(methylsulfonamido)-2-oxo-6-(p-tolyl)pyridin-1(2H)-yl)-4,4-dimethylpentanoic acid], 0.31 µM. The result for `Cc1ccc(-c2c(C)cc(NS(C)(=O)=O)c(=O)n2C(CC(C)(C)C)C(=O)O)cc1` (stereo not drawn) [Example 4, 4,4-Dimethyl-2-(5-methyl-3-(methylsulfonamido)-2-oxo-6-(p-tolyl)pyridin-1(2H)-yl)pentanoic acid] reads 33 µM. As for `Cc1ccc(-c2c(C)c(-c3nnc(N[C@H]4CC[C@H](C)CC4)o3)cc(=O)n2C(CC(C)(C)C)C(=O)O)cc1` (stereo partly drawn) [Example 6, 4,4-Dimethyl-2-(5-methyl-4-(5-(((1 r,4r)-4-methylcyclohexyl)amino)-1,3,4-oxadiazol-2-yl)-2-oxo-6-(p-tolyl)pyridin-1(2H)-yl)pentanoic acid], the figure is 5.6 µM. On to `Cc1ccc(-c2c(C)c(C(=O)NC3CCCCC3)cc(=O)n2C(CC(C)(C)C)C(=O)O)cc1` (stereo not drawn) [Example 7, 2-(4-(cyclohexylcarbamoyl)-5-methyl-2-oxo-6-p-tolylpyridin-1(2H)-yl)-4,4-dimethylpentanoic acid], for which the IC50 is 0.43 µM. The result for `Cc1ccc(-c2c(C)c(C(=O)NCC3CCCCC3)cc(=O)n2C(CC(C)(C)C)C(=O)O)cc1` (stereo not drawn) [Example 8, 2-(4-(cyclohexylmethylcarbamoyl)-5-methyl-2-oxo-6-p-tolylpyridin-1(2H)-yl)-4,4-dimethylpentanoic acid] reads 0.84 µM; that for `Cc1ccc(-c2c(C)c(C(=O)NCc3ccccc3)cc(=O)n2C(CC(C)(C)C)C(=O)O)cc1` (stereo not drawn) [Example 9, 2-(4-(benzylcarbamoyl)-5-methyl-2-oxo-6-p-tolylpyridin-1(2H)-yl)-4,4-dimethylpentanoic acid], 3.29 µM. As for `Cc1ccc(-c2c(C)cc(NS(=O)(=O)CC3CCCCC3)c(=O)n2C(CC(C)(C)C)C(=O)O)cc1` (stereo not drawn) [Example 10, 2-(3-(cyclohexylmethylsulfonamido)-5-methyl-2-oxo-6-(p-tolyl)pyridin-1(2H)-yl)-4,4-dimethylpentanoic acid], the figure is 1.56 µM.

Source of the values: patent US9802898B2, “Phenyl and tertbutylacetic acid substituted pyridinones having anti-HIV effects” (priority 2014, dated 2017).
